# Values quoted from earlier work in publication PMC7397249, “Properly Substituted Cyclic Bis-(2-bromobenzylidene) Compounds Behaved as Dual p300/CARM1 Inhibitors and Induced Apoptosis in Cancer Cells” (Molecules, 2020).
# How the values were obtained:
# [1] = biological target: T1, CARM1 (Homo sapiens, UniProt Q86X55); set-up: method as in PMID 21612300; conditions: cited from earlier work
# T1 sequence (Q86X55 1-608): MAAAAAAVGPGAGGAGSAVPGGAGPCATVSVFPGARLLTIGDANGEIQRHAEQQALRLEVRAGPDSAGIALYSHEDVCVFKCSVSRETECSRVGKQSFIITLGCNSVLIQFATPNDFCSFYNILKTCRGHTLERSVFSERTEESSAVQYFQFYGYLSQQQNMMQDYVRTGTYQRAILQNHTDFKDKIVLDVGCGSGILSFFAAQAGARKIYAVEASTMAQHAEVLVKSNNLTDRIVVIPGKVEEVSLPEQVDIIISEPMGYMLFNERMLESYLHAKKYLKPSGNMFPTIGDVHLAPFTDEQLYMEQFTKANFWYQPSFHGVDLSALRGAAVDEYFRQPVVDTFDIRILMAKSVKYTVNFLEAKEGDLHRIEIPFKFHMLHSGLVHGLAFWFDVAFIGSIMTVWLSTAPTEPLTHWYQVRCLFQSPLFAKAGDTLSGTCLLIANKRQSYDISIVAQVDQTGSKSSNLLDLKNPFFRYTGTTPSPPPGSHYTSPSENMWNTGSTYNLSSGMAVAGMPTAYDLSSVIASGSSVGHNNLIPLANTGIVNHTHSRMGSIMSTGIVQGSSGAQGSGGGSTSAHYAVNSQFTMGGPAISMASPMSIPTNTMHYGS
# [2] = system: EZH2; conditions: ref unpublished results; cited from earlier work
# [3] = system: p300 HAT; conditions: cited from earlier work
# [4] = system: PRMT1; set-up: method as in PMID 21612300; conditions: cited from earlier work
# [5] = system: SET7; set-up: method as in PMID 21612300; conditions: cited from earlier work
structure (smiles),measurement,setting,value
O=C1/C(=C/c2ccc(O)c(Br)c2)CN(Cc2ccccc2)C/C1=C\c1ccc(O)c(Br)c1 [Compound 2],CARM1 inhibition (active/inactive),[1],active
same,EZH2 inhibition (active/inactive),[2],active
same,p300 HAT inhibition (active/inactive),[3],inactive
same,PRMT1 inhibition (active/inactive),[4],inactive
same,SET7 inhibition (active/inactive),[5],inactive
